Laboratory results taken from PMC10520499, “Next step in the development of mesoprogestins: the preclinical profile of EC313” (Frontiers in Endocrinology, 2023).

What was measured:
[1] = target: T1, GR (Homo sapiens, UniProt P04150); assay: GR transactivation (HELA, MMTV-LUC); format: cell-based; parameters: HELA cells line carrying endogenous glucocorticoid protein; endogenous in cells; host or cells: HELA, stably transfected with the reporter only
T1 sequence (P04150 1-777): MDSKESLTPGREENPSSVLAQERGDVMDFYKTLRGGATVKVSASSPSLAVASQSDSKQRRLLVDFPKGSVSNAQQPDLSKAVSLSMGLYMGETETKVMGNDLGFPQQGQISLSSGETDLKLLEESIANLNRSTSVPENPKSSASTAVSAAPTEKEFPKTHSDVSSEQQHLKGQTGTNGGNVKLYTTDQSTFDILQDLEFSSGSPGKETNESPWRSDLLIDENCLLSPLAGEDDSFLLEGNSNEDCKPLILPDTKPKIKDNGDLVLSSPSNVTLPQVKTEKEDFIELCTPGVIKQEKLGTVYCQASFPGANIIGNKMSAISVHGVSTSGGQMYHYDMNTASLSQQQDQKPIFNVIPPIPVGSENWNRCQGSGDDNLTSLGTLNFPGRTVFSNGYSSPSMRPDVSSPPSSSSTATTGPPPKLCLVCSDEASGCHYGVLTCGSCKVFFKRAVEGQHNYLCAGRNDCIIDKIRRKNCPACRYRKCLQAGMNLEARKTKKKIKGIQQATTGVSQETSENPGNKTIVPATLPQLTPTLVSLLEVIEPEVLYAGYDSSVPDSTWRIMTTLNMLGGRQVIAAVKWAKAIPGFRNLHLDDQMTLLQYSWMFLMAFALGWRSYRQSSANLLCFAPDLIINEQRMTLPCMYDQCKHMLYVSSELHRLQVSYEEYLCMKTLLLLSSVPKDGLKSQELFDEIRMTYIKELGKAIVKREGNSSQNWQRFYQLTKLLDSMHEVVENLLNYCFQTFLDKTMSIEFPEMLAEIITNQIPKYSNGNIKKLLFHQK
Method: HELA cells line carrying endogenous glucocorticoid protein were cultured in order to study gene expression on the transcriptional level under the influence of the tested compounds. The cells were transfected with reporter vector MMTV/LUC. To produce high protein overexpression, stable transfection was carried out. […] Agonist and antagonist properties of EC313 toward tested receptor GR were analyzed using luminescence detection.
In order to develop the transfection assay, plasmids were generated and isolated. Vector pGL4.36 coding the glucocorticoid receptor responsive element MMTV and firefly luciferase reporter vector [luc2P/Hygro] were used as a reporter system (pGL4.36-MMTV/LUC). The cells were transfected with reporter vector MMTV/LUC.
stable transfection with reporter vector was performed on a 6-well plate (0.5x10^6 cells per well) in culture medium (EMEM, 10% FBS, NEAA, sodium […], L-glutamine). Briefly, according to the transfection procedure, cells were passaged, and they grew in a culture medium containing an appropriate concentration of the antibiotic (Hygromycin 150 µg/mL). Resistance to Hygromycin gene, which had been transfected together with the reporter vector to the cells, only allowed positively transfected cells to grow in this medium. Therefore, growing cell clones were selected for further steps as stable transfectants.
After 24h incubation of cells with the tested compounds, luciferase activity was measured using VICTOR™ X Multilabel Plate Reader -Perkin Elmer.

[2] = target: T2, ligand binding domain of the human androgen receptor (AR-LBD) (Homo sapiens, UniProt P10275); assay: Competitive binding, AR ligand binding domain
T2 construct: purchased Thermo Fisher Scientific
T2 sequence (P10275 669-900 limits assumed): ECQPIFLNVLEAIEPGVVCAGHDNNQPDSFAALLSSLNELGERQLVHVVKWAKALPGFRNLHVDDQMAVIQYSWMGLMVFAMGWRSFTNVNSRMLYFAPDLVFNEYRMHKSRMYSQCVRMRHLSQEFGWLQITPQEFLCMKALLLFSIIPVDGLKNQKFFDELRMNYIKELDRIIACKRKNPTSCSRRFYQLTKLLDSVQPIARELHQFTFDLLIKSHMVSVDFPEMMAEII
Method: The study aimed to characterize the competitive binding profile of EC313 to relevant human nuclear receptors. For the assays, commercially available ‘ligand binding domain’ proteins were purchased (Thermo Fisher Scientific). In addition, the full-length receptor proteins were expressed in transfected HI insect cells using the `Bac-to-bac Baculovirus expression system´ (Thermo Fisher Scientific). Cellular lysates served as receptor preparation. Receptor protein preparations were incubated with tritiated reference ligands and EC313 or reference steroids at concentrations between 0.1 and 1000 nM for 2h at 4°C to reach equilibrium. Subsequently, unbound steroids were adsorbed to dextran-coated charcoal (Sigma Aldrich), separated by filtration, and the remaining radioactivity was quantified in a ß-counter (Perkin Elmer). Displacement curves were fitted using the GraphPad Prism 7 free version to obtain EC50 values. Relative binding affinity (RBA [%], (C50ref/C50test)*100) and the competition coefficient (C50test/C50ref) were used to describe the relative binding potency of EC313 compared to the reference ligands.

C[C@]12C[C@H](c3ccc(-c4ccoc4)cc3)C3=C4CCC(=O)C=C4CC[C@H]3[C@@H]1CC[C@]21OCCC1=C(F)F [EC313]
activity on GR in transactivation [1]: weak inhibitor
IC50 ([1]; comparative transactivation profile, read-out: Potency, GR Antagonism): 100 nM
IC50 ([2]; AR-LBD): 1060 nM
AR-LBD Comp. Coefficient ([2]; EC313 relative to Metribolone): 17
